From article PMC11003481, “Synthesis, biological evaluation, and computational studies of N-benzyl pyridinium–curcumin derivatives as potent AChE inhibitors with antioxidant activity” (Journal of Enzyme Inhibition and Medicinal Chemistry, 2023)

Columns and labels:
[1] = ABTS radical cation decolorisation antioxidant assay
Method: The antioxidant activity was determined using a radical cation (ABTS^.+) decolorisation assay, as described by Xiao et al.[21] with a few modifications. The assay used a BioTek Epoch 2 microplate spectrophotometer (Agilent, USA) with clear, flat-bottom 96-well plates. The 7 mmol/L ABTS^.+ stock solution was prepared by dissolving 96.02 mg ABTS in acetic acid buffer (pH 4.5) and to a final volume of 25 ml, which was kept in the dark at 0–4 °C. A 2.45 mmol/L potassium persulfate (K2S2O8) stock solution was prepared by dissolving 66.24 mg K2S2O8 in acetic acid buffer solution with pH 4.5, and then diluted to 100 ml and kept in the dark at 0–4 °C. The ABTS working solution was prepared by mixing similar quantities of 7 mmol/L ABTS and 2.45 mmol/L K2S2O8. This solution was stored in a dark cabinet for 16 h before use, when it was diluted with distilled water to obtain an absorbance of 0.70 at 734 nm. In a clear, flat-bottom 96-well plate, 200 μL of ABTS working solution and 10.0 μL sample solution at different concentrations (0.0312–0.5 mg/mL) were mixed well and incubated in the dark for 7 min before the absorbance was measured at 734 nm using a microplate reader. A blank was run for each assay, and all measurements were performed after 7 min. The ABTS scavenging capacity of inhibitors was compared with that of trolox and α-tocopherol. […]

[2] = molecular target: acetylcholinesterase (eeAChE, from Electrophorus electricus) (Electrophorus electricus, UniProt O42275); assay: biochemical; conditions: for Selectivity Index (SI) (AChE): Selectivity ratio [IC50(BChE)/IC50(AChE)]; for IC50: eeAChE, mean ± SEM of three independent experiments, duplicate samples, read-out: IC50 ± SEM AChE
Method: (§1) The AChE and BChE inhibitory activity assays were performed using a BioTek Epoch 2 microplate spectrophotometer in clear, flat-bottom 96-well plates. […] To each well, 295 µL phosphate buffer pH 8.0, 10 µL enzyme solution (AChE/BChE), and 10 µL target compound solutions were added together and allowed to stand for 4 min at room temperature. Then, 10 µL of 0.01 M solution freshly prepared Ellman’s reagent 5,5′-dithiobis(2-nitrobenzoic acid) (DTNB) was added to each well. The reaction in the wells was started by the addition of 2 µL of 0.075 M solution freshly prepared substrate (ATCh (acetylthiocholine iodide)/BTCh (S-butyrylthiocholine iodide)) solution. The solution was mixed immediately and incubated for 2:30 min for AChE or for 5 min for BChE inside the microplate reader at 26 °C. […] The IC50 values were calculated graphically by nonlinear regression analysis of inhibition curves that were obtained by plotting the logarithm of the inhibitor concentrations versus the percentage of inhibition (log(inhibitor) vs. normalised response) using GraphPad Prism 8 software (See Supplementary Information for details).

[3] = molecular target: T1, butyrylcholinesterase (eqBChE, from equine serum) (Equus caballus, UniProt P81908); assay: biochemical; conditions: mean ± SEM of three independent experiments, duplicate samples, read-out: IC50 ± SEM BChE
T1 construct: butyrylcholinesterase (eqBChE, from equine serum); from tissue; host or cells: equine serum
Method: as §1

eeAChE = eeAChE (Electrophorus electricus, UniProt O42275); assay: biochemical; format: biochemical; conditions: from slopes of Lineweaver-Burk plots versus inhibitor concentration; substrate ATCh; read-out: Ki ± SEM eeAChE
Method: The slopes of the Lineweaver-Burk reciprocal plots against the concentrations of the compound (inhibitor) were plotted to obtain the Ki values for the prepared compounds (Table 1). The value at which the line intersects the x-axis is -Ki.
The assay was performed in triplicate using different inhibitor concentrations. […] The assay was carried out in clear, flat-bottom 96-well plates, to which 5 µL distilled water was added to all wells of columns 2–3, rows B-F. Then, 5 µL of the lowest concentration of inhibitor solution was added to the wells of columns 4–5, 5 µL of the median concentration of inhibitor solution was added to the wells of columns 6–7, and 5 µL of the highest concentration of inhibitor solution was added to the wells of columns 8–9. Next, 275 μL enzyme solution was added to the wells, and the plates were incubated for 4 min. Then, 10 μL 2.5 mM DTNB was added to the wells, followed by 10 μL of 32, 16, 8, 4, or 2 mM ATCh solutions to initiate the reactions. The plates were placed in a microplate reader for direct kinetic measurements.
The inhibition constant (Ki) for each inhibitor was calculated by averaging the ATCh hydrolysis rates from three independent experiments. Using GraphPad Prism 8 software, nonlinear regression was used to calculate the Km and Vmax values of the Michaelis-Menten kinetics by plotting [substrate] versus velocity. For the Lineweaver-Burk plots, linear regression was used to plot [1/ATCh] versus […]. Finally, the Ki values were obtained by plotting the slopes against [inhibitor] [20].

Chain of eeAChE (O42275 24-633): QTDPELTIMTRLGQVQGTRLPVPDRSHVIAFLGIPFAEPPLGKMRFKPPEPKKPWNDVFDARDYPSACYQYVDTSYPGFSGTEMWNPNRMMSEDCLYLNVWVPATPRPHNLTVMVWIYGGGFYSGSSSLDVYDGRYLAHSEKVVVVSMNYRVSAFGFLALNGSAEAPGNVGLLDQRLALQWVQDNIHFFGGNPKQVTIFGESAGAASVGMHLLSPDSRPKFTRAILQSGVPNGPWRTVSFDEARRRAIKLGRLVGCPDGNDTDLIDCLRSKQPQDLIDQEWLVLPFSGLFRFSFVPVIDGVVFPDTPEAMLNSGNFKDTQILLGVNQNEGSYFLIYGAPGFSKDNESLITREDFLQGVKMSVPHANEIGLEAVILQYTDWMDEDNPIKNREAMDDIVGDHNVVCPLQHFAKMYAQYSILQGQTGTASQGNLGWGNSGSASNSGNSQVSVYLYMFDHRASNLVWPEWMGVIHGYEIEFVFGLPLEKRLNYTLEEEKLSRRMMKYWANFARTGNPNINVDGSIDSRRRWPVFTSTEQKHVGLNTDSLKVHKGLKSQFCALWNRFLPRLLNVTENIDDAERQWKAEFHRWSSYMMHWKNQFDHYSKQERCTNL
Chain of acetylcholinesterase (eeAChE, from Electrophorus electricus) (O42275 24-633): as above
T1 sequence (P81908 whole entry): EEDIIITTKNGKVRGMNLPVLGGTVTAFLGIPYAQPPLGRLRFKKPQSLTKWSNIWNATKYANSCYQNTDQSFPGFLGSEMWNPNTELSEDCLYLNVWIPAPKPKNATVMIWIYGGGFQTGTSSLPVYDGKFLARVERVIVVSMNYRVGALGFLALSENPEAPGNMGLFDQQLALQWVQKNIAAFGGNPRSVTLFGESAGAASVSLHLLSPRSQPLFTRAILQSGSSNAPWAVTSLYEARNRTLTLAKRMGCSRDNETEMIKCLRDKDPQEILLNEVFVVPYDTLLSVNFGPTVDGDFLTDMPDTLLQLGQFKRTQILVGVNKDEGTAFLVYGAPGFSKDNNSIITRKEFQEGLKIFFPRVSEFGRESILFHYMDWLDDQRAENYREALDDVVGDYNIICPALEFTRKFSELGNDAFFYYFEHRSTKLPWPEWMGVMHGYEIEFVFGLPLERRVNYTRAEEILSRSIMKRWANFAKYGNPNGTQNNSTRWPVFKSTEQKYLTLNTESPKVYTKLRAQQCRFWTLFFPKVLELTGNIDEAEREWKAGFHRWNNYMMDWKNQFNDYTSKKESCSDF

Compound | ABTS Inhibition % ([1]; 0.0312 mg/mL) [%] | ABTS Inhibition % ([1]; 0.0625 mg/mL) [%] | ABTS Inhibition % ([1]; 0.125 mg/mL) [%] | ABTS Inhibition % ([1]; 0.25 mg/mL) [%] | Selectivity Index (SI) (AChE) [2] | IC50 [2] [nM] | IC50 [3] [nM] | Ki (eeAChE) [nM] | ABTS Inhibition % ([1]; 0.5 mg/mL) [%]
COc1cc(/C=C/C(=O)/C=C/c2ccc[n+](Cc3ccc(F)cc3)c2)ccc1O [8 g, 1–(4-Fluorobenzyl)-3-(1E,4E)-5–(4-hydroxy-3-methoxyphenyl)-3-oxopenta-1,4-dien-1-yl)pyridin-1-ium bromide] | 6.1 ± 0.71 | 13.7 ± 0.52 | 24.7 ± 0.51 | 39.5 ± 0.38 | 79 | 16 ± 0.24 | 1200 ± 97 | 10 ± 0.025 | –
COc1cc(/C=C/C(=O)/C=C/c2ccc[n+](Cc3ccccc3)c2)ccc1O [Compound 8f, 1-Benzyl-3-(1E,4E)-5–(4-hydroxy-3-methoxyphenyl)-3-oxopenta-1,4-dien-1-yl)pyridin-1-ium bromide] | 7.7 ± 0.97 | 15.8 ± 0.18 | 25.4 ± 0.57 | 39.3 ± 0.23 | – | 17 ± 0.17 | 3500 ± 95 | 16 ± 0.022 | –
O=C(/C=C/c1ccccc1)/C=C/c1cc[n+](Cc2ccc(F)cc2)cc1 [Compound 7b] | 0.5 ± 0.47 | 1.4 ± 0.07 | 3.3 ± 0.10 | 6.2 ± 0.50 | 21 | 52 ± 0.18 | 1070 ± 80 | 56 ± 0.016 | 7.1 ± 0.59
COc1cc(/C=C/C(=O)/C=C/c2cc[n+](Cc3ccc(F)cc3)cc2)ccc1O [7 g, 1–(4-Fluorobenzyl)-4-(1E,4E)-5–(4-hydroxy-3-methoxyphenyl)-3-oxopenta-1,4-dien-1-yl)pyridin-1-ium bromide] | 6.1 ± 0.82 | 13.9 ± 0.68 | 22.5 ± 0.77 | 30.2 ± 1.86 | 65 | 16 ± 0.18 | 1040 ± 81 | 6 ± 0.031 | 52.1 ± 1.58
